Consider 7 molecules from ChEMBL document CHEMBL5465560, “Selectivity Literature for EUbOPEN Chemogenomic Library” (2024).

Experiment [1] concerns the target Tyrosine-protein kinase Fgr (Homo sapiens) (UniProt P09769). The experiment can be described thus: Selectivity interaction (KinomeScan (DiscoverX)) EUB0000666a FGR. The following applies: at 10 µM.
Experiment [2] addresses Ribosomal protein S6 kinase beta-1 (Homo sapiens, UniProt P23443). The experiment can be described thus: Selectivity interaction (KinomeScan (DiscoverX)) EUB0001079a RPS6KB1. The settings on record: at 1 µM.
Experiment [3] deals with T1, Interleukin-1 receptor-associated kinase 4 (Homo sapiens) (UniProt Q9NWZ3).
T1 sequence (whole entry): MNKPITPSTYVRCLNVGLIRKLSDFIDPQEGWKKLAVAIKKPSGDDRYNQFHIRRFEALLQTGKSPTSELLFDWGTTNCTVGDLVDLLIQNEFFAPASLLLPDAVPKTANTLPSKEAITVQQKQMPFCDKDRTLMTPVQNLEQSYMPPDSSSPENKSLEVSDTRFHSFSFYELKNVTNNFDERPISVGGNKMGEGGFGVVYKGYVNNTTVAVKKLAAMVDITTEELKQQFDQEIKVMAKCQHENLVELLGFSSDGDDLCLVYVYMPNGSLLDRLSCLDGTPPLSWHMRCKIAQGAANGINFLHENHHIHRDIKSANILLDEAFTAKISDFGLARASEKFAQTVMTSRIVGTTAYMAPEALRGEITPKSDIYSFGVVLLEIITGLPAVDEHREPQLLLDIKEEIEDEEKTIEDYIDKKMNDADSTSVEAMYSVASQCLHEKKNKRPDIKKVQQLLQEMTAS
Description: Selectivity interaction (Kinase panel (Invitrogen)) EUB0000639a IRAK4. The following applies: at 200 nM.

Experiment [4] concerns the target Protein kinase C theta type (Homo sapiens, UniProt Q04759). Description: Selectivity interaction (Kinase screening (Upstate/Millipore)) EUB0000604a PRKCQ.
Experiment [5] deals with T2, Dual specificity mitogen-activated protein kinase kinase 6 (Homo sapiens) (UniProt P52564).
T2 sequence (whole entry): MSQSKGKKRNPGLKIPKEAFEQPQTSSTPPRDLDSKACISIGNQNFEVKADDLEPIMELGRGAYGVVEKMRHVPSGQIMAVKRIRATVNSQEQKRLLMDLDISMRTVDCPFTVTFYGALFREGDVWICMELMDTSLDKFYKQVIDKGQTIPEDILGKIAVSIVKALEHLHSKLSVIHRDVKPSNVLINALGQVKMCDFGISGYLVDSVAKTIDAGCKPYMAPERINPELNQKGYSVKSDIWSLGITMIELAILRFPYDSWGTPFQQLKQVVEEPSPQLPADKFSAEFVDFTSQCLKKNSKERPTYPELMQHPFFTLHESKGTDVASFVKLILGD
Description: Selectivity interaction (Kinase screening (Upstate/Millipore)) EUB0000604a MAP2K6.

The subject of experiment [6] is Epidermal growth factor receptor (Homo sapiens), P00533 [UNDEFINED MUTATION]. The experiment can be described thus: Selectivity interaction (ProQinase) EUB0000171b EGFR. The following applies: at 5 µM.
Experiment [7] has as its target Eukaryotic translation initiation factor 2-alpha kinase 1 (Homo sapiens) (UniProt Q9BQI3). Description: Selectivity interaction (ProQinase) EUB0000171b EIF2AK1.
In experiment [8] the target is T3, Protein kinase C iota type (Homo sapiens) (UniProt P41743).
T3 sequence (whole entry): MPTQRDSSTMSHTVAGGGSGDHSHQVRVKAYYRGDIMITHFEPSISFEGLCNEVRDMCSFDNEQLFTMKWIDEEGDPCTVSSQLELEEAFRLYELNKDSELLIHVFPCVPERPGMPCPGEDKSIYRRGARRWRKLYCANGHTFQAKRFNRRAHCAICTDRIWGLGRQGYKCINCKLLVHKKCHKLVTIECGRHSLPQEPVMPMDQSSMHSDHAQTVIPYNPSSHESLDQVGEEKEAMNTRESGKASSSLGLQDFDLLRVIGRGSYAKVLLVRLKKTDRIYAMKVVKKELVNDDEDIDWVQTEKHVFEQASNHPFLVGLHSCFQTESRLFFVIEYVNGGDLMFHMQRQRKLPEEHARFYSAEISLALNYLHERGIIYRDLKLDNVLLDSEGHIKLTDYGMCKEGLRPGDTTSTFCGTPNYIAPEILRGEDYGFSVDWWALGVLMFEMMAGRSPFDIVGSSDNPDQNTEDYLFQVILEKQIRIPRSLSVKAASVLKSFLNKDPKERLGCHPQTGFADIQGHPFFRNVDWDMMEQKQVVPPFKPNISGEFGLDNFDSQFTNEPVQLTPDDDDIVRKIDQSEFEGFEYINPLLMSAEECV
The experiment can be described thus: Selectivity interaction (KinomeScan (DiscoverX)) EUB0000092b PRKCI. The following applies: at 10 µM.

Experiment [9] concerns the target T4, Serine/threonine-protein kinase 17A (Homo sapiens) (UniProt Q9UEE5).
T4 sequence (whole entry): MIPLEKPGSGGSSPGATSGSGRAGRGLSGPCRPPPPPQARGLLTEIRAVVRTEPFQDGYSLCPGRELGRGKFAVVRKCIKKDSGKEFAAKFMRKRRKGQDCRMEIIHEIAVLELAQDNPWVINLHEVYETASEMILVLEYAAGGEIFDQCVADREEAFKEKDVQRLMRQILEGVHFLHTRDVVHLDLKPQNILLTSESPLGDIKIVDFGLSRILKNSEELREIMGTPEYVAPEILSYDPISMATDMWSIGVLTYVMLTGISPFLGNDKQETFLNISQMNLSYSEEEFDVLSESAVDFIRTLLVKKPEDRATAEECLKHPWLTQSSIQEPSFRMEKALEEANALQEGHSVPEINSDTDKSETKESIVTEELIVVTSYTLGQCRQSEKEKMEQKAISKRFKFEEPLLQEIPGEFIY
Description: Selectivity interaction (KinomeScan (DiscoverX)) EUB0000045b STK17A.

Chain of Eukaryotic translation initiation factor 2-alpha kinase 1 (Homo sapiens) (Q9BQI3 whole entry): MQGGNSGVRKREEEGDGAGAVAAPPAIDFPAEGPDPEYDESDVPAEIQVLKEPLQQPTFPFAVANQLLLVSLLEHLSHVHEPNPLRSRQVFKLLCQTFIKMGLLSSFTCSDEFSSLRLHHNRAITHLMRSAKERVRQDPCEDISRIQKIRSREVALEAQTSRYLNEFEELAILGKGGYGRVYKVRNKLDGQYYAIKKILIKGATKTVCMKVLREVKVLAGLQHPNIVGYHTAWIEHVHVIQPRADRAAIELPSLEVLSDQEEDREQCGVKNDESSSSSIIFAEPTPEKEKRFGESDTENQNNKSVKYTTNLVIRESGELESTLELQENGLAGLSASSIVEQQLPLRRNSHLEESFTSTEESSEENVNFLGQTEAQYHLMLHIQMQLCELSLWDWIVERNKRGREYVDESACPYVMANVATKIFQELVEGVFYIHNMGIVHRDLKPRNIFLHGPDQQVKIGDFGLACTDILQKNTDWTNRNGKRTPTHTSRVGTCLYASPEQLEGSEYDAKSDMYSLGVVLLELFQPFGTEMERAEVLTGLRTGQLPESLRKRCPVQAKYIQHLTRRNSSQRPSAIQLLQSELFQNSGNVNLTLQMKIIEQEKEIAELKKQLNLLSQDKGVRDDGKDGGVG
Chain of Epidermal growth factor receptor (Homo sapiens), P00533 [UNDEFINED MUTATION] (P00533 whole entry, looked up, change not shown): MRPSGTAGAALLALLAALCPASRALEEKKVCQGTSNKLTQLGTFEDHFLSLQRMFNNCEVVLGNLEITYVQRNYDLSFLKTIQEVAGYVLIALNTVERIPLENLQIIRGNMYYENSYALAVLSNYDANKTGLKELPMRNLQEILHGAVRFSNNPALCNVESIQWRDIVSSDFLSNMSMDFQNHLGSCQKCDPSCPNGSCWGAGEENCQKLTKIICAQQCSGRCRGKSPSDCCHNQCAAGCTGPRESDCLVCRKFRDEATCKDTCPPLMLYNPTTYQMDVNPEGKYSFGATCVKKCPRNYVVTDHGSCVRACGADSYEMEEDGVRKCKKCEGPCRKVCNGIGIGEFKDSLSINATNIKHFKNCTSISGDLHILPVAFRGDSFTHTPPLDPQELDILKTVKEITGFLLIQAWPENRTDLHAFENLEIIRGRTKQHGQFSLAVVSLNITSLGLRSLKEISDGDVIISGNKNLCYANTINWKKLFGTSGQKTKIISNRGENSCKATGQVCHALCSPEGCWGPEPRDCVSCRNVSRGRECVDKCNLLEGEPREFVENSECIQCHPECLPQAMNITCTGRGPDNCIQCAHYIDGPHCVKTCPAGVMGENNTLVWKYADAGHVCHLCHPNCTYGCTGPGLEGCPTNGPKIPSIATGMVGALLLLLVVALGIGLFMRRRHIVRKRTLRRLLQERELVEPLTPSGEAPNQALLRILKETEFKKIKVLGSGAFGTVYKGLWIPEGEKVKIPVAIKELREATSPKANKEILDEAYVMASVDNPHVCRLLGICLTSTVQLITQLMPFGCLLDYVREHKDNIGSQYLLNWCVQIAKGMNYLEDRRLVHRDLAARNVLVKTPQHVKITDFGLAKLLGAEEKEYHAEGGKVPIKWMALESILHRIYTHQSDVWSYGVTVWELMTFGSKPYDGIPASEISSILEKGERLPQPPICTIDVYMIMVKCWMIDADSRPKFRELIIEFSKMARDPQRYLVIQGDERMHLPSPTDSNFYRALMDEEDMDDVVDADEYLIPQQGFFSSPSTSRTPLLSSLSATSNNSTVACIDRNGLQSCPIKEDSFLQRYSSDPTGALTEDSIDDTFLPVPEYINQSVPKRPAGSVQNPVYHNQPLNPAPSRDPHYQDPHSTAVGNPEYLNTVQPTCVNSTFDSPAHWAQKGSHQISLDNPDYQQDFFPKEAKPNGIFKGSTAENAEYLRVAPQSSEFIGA
Chain of Ribosomal protein S6 kinase beta-1 (P23443 whole entry, looked up): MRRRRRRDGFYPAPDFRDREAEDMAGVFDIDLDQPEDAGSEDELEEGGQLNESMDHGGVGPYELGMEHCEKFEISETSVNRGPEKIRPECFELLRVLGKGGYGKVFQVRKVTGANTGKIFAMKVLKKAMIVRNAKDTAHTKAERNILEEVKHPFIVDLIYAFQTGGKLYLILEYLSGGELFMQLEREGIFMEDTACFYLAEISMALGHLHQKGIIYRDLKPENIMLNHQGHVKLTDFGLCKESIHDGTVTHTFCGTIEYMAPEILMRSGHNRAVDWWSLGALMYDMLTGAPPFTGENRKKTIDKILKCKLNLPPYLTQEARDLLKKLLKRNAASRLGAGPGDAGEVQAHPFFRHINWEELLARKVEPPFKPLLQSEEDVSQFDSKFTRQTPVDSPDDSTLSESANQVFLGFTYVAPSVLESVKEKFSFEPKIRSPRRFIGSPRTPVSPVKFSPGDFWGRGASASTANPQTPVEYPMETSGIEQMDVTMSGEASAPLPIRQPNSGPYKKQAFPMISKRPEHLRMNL
Chain of Tyrosine-protein kinase Fgr (Homo sapiens) (P09769 2-529 limits assumed): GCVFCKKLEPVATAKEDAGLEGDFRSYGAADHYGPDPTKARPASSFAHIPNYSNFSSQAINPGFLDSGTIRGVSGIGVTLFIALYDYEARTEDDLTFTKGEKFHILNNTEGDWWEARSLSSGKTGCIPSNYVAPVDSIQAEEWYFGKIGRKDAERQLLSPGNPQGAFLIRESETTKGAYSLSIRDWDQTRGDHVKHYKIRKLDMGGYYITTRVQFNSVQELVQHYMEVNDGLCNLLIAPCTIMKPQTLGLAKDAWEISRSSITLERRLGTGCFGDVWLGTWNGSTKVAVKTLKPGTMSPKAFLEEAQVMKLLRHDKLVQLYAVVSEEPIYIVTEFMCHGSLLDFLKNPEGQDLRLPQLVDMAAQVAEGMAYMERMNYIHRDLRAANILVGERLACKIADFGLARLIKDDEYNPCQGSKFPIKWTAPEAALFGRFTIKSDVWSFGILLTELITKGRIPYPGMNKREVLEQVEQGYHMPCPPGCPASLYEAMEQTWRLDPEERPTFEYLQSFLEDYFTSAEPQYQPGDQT
Chain of Protein kinase C theta type (Q04759 whole entry, looked up): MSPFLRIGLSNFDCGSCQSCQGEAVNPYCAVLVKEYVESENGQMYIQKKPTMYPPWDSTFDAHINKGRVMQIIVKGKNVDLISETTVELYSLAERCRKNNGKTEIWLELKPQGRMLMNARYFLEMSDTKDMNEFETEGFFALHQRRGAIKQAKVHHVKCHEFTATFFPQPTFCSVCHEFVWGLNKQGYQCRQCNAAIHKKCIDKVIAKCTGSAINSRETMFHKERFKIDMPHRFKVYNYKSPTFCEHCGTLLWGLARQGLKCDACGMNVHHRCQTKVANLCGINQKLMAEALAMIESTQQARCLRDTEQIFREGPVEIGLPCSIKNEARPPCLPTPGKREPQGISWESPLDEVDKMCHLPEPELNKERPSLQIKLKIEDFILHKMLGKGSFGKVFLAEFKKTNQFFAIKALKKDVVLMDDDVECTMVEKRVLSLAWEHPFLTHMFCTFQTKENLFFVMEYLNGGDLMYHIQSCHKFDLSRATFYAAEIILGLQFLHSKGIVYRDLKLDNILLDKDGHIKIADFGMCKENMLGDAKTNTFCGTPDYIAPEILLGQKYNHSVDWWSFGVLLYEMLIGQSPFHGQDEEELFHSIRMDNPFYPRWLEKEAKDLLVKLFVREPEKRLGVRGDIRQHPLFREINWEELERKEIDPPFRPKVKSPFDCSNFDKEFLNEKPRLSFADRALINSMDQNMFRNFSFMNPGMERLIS

In the case of `O=C(NOC[C@H](O)CO)c1ccc(F)c(F)c1Nc1ccc(I)cc1F`, in [1], the % of control is 95%.
On to `Nc1cnc(N2CCc3cc(S(=O)(=O)Nc4c(F)cc(Cl)cc4F)cc(N4CCCC4=O)c32)nc1` [TP-020n], for which, in [2], the % of control came out at 83%.
Regarding `CC[C@@H]1[C@H](F)C(=O)N[C@@H]1COc1nccc2cc(C(N)=O)c(OC)cc12` [ZIMLOVISERTIB], the % of inhibition in [3] came to 106%.
For `Cc1cnc(Nc2ccc(F)cc2Cl)nc1-c1c[nH]c(C(=O)N[C@H](CO)c2cccc(Cl)c2)c1`, the % of inhibition in experiment [4] is 17%; in experiment [5], 9%.
Regarding `C=CC(=O)Nc1cccc(C(=O)Nc2ccc(Nc3cc(-c4[nH]c(SC)nc4C)ccn3)cc2)c1`, the % of control in experiment [6] is 86%; in experiment [7] (at 1 µM), 85%; in [7] (at 5 µM), 66%.
`CCC(=O)N1CCN(c2ccc(-n3c(=O)ccc4cnc5ccc(-c6cnc7ccccc7c6)cc5c43)cc2C(F)(F)F)CC1`: in experiment [8], the % of control came to 85%.
Turning to `C=CC(=O)Nc1cc(-n2c(=O)ccc3cnc4ccc(-c5ccc(NS(C)(=O)=O)cc5)cc4c32)ccc1C`, the % of control in experiment [9] (at 1 µM) and in experiment [9] (at 10 µM) was 100% throughout.
